Measured values taken from patent US20230340012A1, “NATURAL AND SYNTHETIC COMPOUNDS FOR TREATING CANCER AND OTHER DISEASES” (PACIFIC ARROW LIMITED, priority 2009, published 2023).

Tested on: cancer cells
Assay: MTT cytotoxic assay of esterification products (Cytotoxicity activity)
Assay type: cell-based, human
In short: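 Cytotoxicity was read by MTT (Carmichael method, modified), with cells seeded 24 h ahead of treatment. Sixteen human cancer lines spanning bone, lung, bladder, ovary, colon, pancreas, prostate, skin, mouth, kidney, breast, liver, brain, leukemia and cervix were used. Test samples were acyl chloride esterification products of triterpenes, as mixtures or HPLC-purified compounds.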

[1] = MTT cytotoxic assay, isolated esterification products of E4A
[2] = esterification products isolated with HPLC, graded strong / moderate / weak
[3] = E4A esterified with Acetyl chloride (Acy = Acetyl), compounds isolated with HPLC
[4] = E4A esterified with Cinnamoyl chloride (Cin = Cinnamoyl), compounds isolated with HPLC
[5] = E4A esterified with Crotonoyl chloride (Cro = Crotonoyl), compounds isolated with HPLC
[6] = E4A esterified with 2-propenoyl chloride (Ppe = Propenoyl), compounds isolated with HPLC
[7] = E4A esterified with Propionyl chloride (Ppi = Propionyl), compounds isolated with HPLC
[8] = E4A esterified with benzoyl chloride (Ben = benzoyl), compounds isolated with HPLC
[9] = esterification products of core compound E4A with (2E)-2-pentenoyl chloride (2pe = 2-pentenoyl)
[10] = esterification products of core compound E4A with Butyryl chloride (But = Butyryl)
[11] = esterification products of core compound E4A with Decanoyl chloride (Dec = Decanoyl)
[12] = esterification products of core compound E4A with Isobutyryl chloride (Iso = Isobutyryl)
[13] = esterification products of core compound E4A with Myristoyl chloride (Myr = Myristoyl)
[14] = esterification products of core compound E4A with Octanoyl chloride (Oct = Octanoyl)

## CC=C(C)C(=O)OCC1(C)C(OC(=O)C(C)=CC)CCC2(C)C1CCC1(C)C2CC=C2C3CC(C)(C)C(OC(=O)C(C)=CC)C(OC(=O)C(C)=CC)C3(COC(=O)C(C)=CC)C(O)CC21C (stereo not drawn) [Compound A15]
[1]
  Cytotoxicity activity: weak

## CC=C(C)C(=O)OCC1(C)C(OC(=O)C=C(C)C)CCC2(C)C1CCC1(C)C2CC=C2C3CC(C)(C)C(OC(=O)C=C(C)C)C(O)C3(COC(=O)C(C)=CC)C(O)CC21C (stereo not drawn) [Tig—R—Sen—5]
[2]
  Cytotoxicity activity: weak

## CC(=O)OC1C(OC(C)=O)C2(CO)C(OC(C)=O)CC3(C)C(=CCC4C5(C)CCC(O)C(C)(CO)C5CCC43C)C2CC1(C)C (stereo not drawn) [Compound H22]
[3]
  Cytotoxicity activity: moderate

## CC1(C)CC2C3=CCC4C5(C)CCC(O)C(C)(CO)C5CCC4(C)C3(C)CC(O)C2(COC(=O)C=Cc2ccccc2)C(O)C1OC(=O)C=Cc1ccccc1 (stereo not drawn) [Compound J25]
[4]
  Cytotoxicity activity: moderate

## CC1(C)CC2C3=CCC4C5(C)CCC(O)C(C)(COC(=O)C=Cc6ccccc6)C5CCC4(C)C3(C)CC(O)C2(CO)C(OC(=O)C=Cc2ccccc2)C1OC(=O)C=Cc1ccccc1 (stereo not drawn) [Compound J21]
[4]
  Cytotoxicity activity: moderate

## CC=C(C)C(=O)OCC1(C)C(OC(=O)C(C)=CC)CCC2(C)C1CCC1(C)C2CC=C2C3CC(C)(C)C(OC(=O)C(C)=CC)C(O)C3(COC(=O)C(C)=CC)C(O)CC21C (stereo not drawn) [Compound A11]
[1]
  Cytotoxicity activity: weak

## CC=C(C)C(=O)OCC1(C)C(OC(=O)C=C(C)C)CCC2(C)C1CCC1(C)C2CC=C2C3CC(C)(C)C(O)C(O)C3(COC(=O)C(C)=CC)C(O)CC21C (stereo not drawn) [Tig—R—Sen—4]
[2]
  Cytotoxicity activity: moderate

## CC=CC(=O)OCC1(C)C(OC(=O)C=CC)CCC2(C)C1CCC1(C)C2CC=C2C3CC(C)(C)C(OC(=O)C=CC)C(O)C3(COC(=O)C=CC)C(OC(=O)C=CC)CC21C (stereo not drawn) [Compound I17]
[5]
  Cytotoxicity activity: weak

## CC1(C)CC2C3=CCC4C5(C)CCC(OC(=O)C=Cc6ccccc6)C(C)(COC(=O)C=Cc6ccccc6)C5CCC4(C)C3(C)CC(O)C2(COC(=O)C=Cc2ccccc2)C(O)C1OC(=O)C=Cc1ccccc1 (stereo not drawn) [Compound J11]
[4]
  Cytotoxicity activity: weak

## CC1(C)CC2C3=CCC4C5(C)CCC(OC(=O)C=Cc6ccccc6)C(C)(COC(=O)C=Cc6ccccc6)C5CCC4(C)C3(C)CC(OC(=O)C=Cc3ccccc3)C2(COC(=O)C=Cc2ccccc2)C(OC(=O)C=Cc2ccccc2)C1O (stereo not drawn) [Compound J18]
[4]
  Cytotoxicity activity: weak

## CC=CC(=O)OCC12C(O)CC3(C)C(=CCC4C5(C)CCC(O)C(C)(COC(=O)C(C)=CC)C5CCC43C)C1CC(C)(C)C(O)C2OC(=O)C=CC (stereo not drawn) [Tig—Cro—3]
[2]
  Cytotoxicity activity: moderate

## CC(C)=CC(=O)OCC12C(OC(=O)C=C(C)C)CC3(C)C(=CCC4C5(C)CCC(O)C(C)(CO)C5CCC43C)C1CC(C)(C)C(O)C2O (stereo not drawn) [Compound B28]
[1]
  Cytotoxicity activity: moderate

## CC1(C)CC2C3=CCC4C5(C)CCC(OC(=O)c6ccccc6)C(C)(COC(=O)c6ccccc6)C5CCC4(C)C3(C)CC(OC(=O)c3ccccc3)C2(COC(=O)c2ccccc2)C(O)C1OC(=O)c1ccccc1 (stereo not drawn) [Compound K17]
[6]
  Cytotoxicity activity: weak
[7]
  Cytotoxicity activity: weak
[8]
  Cytotoxicity activity: weak
[9]
  Cytotoxicity activity: weak
[10]
  Cytotoxicity activity: weak
[11]
  Cytotoxicity activity: weak
[12]
  Cytotoxicity activity: weak
[13]
  Cytotoxicity activity: weak
[14]
  Cytotoxicity activity: weak

## CC=CC(=O)OCC1(C)C(OC(=O)C=CC)CCC2(C)C1CCC1(C)C2CC=C2C3CC(C)(C)C(O)C(OC(=O)C=CC)C3(COC(=O)C=CC)C(O)CC21C (stereo not drawn) [Compound I14]
[5]
  Cytotoxicity activity: weak

## C=CCCC(=O)OCC1(C)C(O)CCC2(C)C1CCC1(C)C2CC=C2C3CC(C)(C)C(O)C(O)C3(COC(=O)CCC=C)C(O)CC21C (stereo not drawn) [Compound C3]
[1]
  Cytotoxicity activity: strong

## CC=C(C)C(=O)OCC1(C)C(O)CCC2(C)C1CCC1(C)C2CC=C2C3CC(C)(C)C(OC(=O)C(C)=CC)C(OC(=O)C(C)=CC)C3(COC(=O)C(C)=CC)C(O)CC21C (stereo not drawn) [Compound A8]
[1]
  Cytotoxicity activity: weak

## CC=C(C)C(=O)OC1C(OC(=O)C(C)=CC)C2(CO)C(O)CC3(C)C(=CCC4C5(C)CCC(O)C(C)(CO)C5CCC43C)C2CC1(C)C (stereo not drawn) [Compound A24]
[1]
  Cytotoxicity activity: moderate

## CC(C)=CC(=O)OCC12C(O)CC3(C)C(=CCC4C5(C)CCC(OC(=O)C=C(C)C)C(C)(CO)C5CCC43C)C1CC(C)(C)C(O)C2O (stereo not drawn) [Compound B27]
[1]
  Cytotoxicity activity: moderate

## CC=C(C)C(=O)OCC1(C)C(OC(=O)C(C)=CC)CCC2(C)C1CCC1(C)C2CC=C2C3CC(C)(C)C(OC(=O)C(C)=CC)C(OC(=O)C(C)=CC)C3(COC(=O)C(C)=CC)C(OC(=O)C(C)=CC)CC21C (stereo not drawn) [Compound A19]
[1]
  Cytotoxicity activity: none

## CC=C(C)C(=O)OCC1(C)C(OC(=O)C=C(C)C)CCC2(C)C1CCC1(C)C2CC=C2C3CC(C)(C)C(O)C(OC(=O)C=C(C)C)C3(COC(=O)C(C)=CC)C(O)CC21C (stereo not drawn) [Tig—R—Sen—6]
[2]
  Cytotoxicity activity: weak

## CCC(CC)C(=O)OCC12C(O)CC3(C)C(=CCC4C5(C)CCC(OC(=O)C(CC)CC)C(C)(CO)C5CCC43C)C1CC(C)(C)C(O)C2O (stereo not drawn) [Compound E27]
[1]
  Cytotoxicity activity: moderate

## CC=C(C)C(=O)OCC1(C)C(O)CCC2(C)C1CCC1(C)C2CC=C2C3CC(C)(C)C(OC(=O)C=Cc4ccccc4)C(O)C3(COC(=O)C=Cc3ccccc3)C(O)CC21C (stereo not drawn) [Tig—Cin—2]
[2]
  Cytotoxicity activity: moderate

## C=CCCC(=O)OC1C(OC(=O)CCC=C)C2(CO)C(OC(=O)CCC=C)CC3(C)C(=CCC4C5(C)CCC(O)C(C)(CO)C5CCC43C)C2CC1(C)C (stereo not drawn) [Compound C22]
[1]
  Cytotoxicity activity: moderate

## CC1(C)CC2C3=CCC4C5(C)CCC(O)C(C)(CO)C5CCC4(C)C3(C)CC(OC(=O)C=Cc3ccccc3)C2(COC(=O)C=Cc2ccccc2)C(O)C1O (stereo not drawn) [Compound J28]
[4]
  Cytotoxicity activity: moderate

## C=CCCC(=O)OC1C(O)C2(CO)C(O)CC3(C)C(=CCC4C5(C)CCC(O)C(C)(COC(=O)C(C)=CC)C5CCC43C)C2CC1(C)C (stereo not drawn) [Tig—Pen—5]
[2]
  Cytotoxicity activity: moderate

## CC=C(C)C(=O)OCC1(C)C(O)CCC2(C)C1CCC1(C)C2CC=C2C3CC(C)(C)C(O)C(OC(C)=O)C3(CO)C(O)CC21C (stereo not drawn) [Tig—Acy—6]
[2]
  Cytotoxicity activity: moderate

## CC=CC(=O)OCC12C(O)CC3(C)C(=CCC4C5(C)CCC(O)C(C)(CO)C5CCC43C)C1CC(C)(C)C(OC(=O)C=CC)C2O (stereo not drawn) [Compound I25]
[5]
  Cytotoxicity activity: moderate

## CC=C(C)C(=O)OCC12C(O)CC3(C)C(=CCC4C5(C)CCC(O)C(C)(CO)C5CCC43C)C1CC(C)(C)C(O)C2O (stereo not drawn) [Compound A2]
[1]
  Cytotoxicity activity: moderate

## C=CCCC(=O)OCC1(C)C(OC(=O)CCC=C)CCC2(C)C1CCC1(C)C2CC=C2C3CC(C)(C)C(OC(=O)CCC=C)C(O)C3(COC(=O)CCC=C)C(OC(=O)CCC=C)CC21C (stereo not drawn) [Compound C17]
[1]
  Cytotoxicity activity: weak

## CCCCCC(=O)OCC12C(OC(=O)CCCCC)CC3(C)C(=CCC4C5(C)CCC(O)C(C)(CO)C5CCC43C)C1CC(C)(C)C(O)C2O (stereo not drawn) [Compound D28]
[1]
  Cytotoxicity activity: moderate

## CC=C(C)C(=O)OCC1(C)C(O)CCC2(C)C1CCC1(C)C2CC=C2C3CC(C)(C)C(O)C(OC(=O)CCCCC)C3(COC(=O)C(C)=CC)C(O)CC21C (stereo not drawn) [Tig—R—Hex—3]
[2]
  Cytotoxicity activity: moderate

## CC(=O)OCC1(C)C(O)CCC2(C)C1CCC1(C)C2CC=C2C3CC(C)(C)C(O)C(O)C3(CO)C(O)CC21C (stereo not drawn) [Compound H1]
[3]
  Cytotoxicity activity: moderate

## CC(=O)OCC1(C)C(O)CCC2(C)C1CCC1(C)C2CC=C2C3CC(C)(C)C(OC(C)=O)C(OC(C)=O)C3(COC(C)=O)C(O)CC21C (stereo not drawn) [Compound H8]
[3]
  Cytotoxicity activity: weak

## CC=C(C)C(=O)OCC1(C)C(O)CCC2(C)C1CCC1(C)C2CC=C2C3CC(C)(C)C(O)C(OC(=O)C(CC)CC)C3(COC(=O)C(CC)CC)C(O)CC21C (stereo not drawn) [Tig—Eth—3]
[2]
  Cytotoxicity activity: moderate

## C=CCCC(=O)OCC1(C)C(O)CCC2(C)C1CCC1(C)C2CC=C2C3CC(C)(C)C(OC(=O)CCC=C)C(OC(=O)CCC=C)C3(COC(=O)CCC=C)C(OC(=O)CCC=C)CC21C (stereo not drawn) [Compound C16]
[1]
  Cytotoxicity activity: weak

## CC1(C)CC2C3=CCC4C5(C)CCC(O)C(C)(COC(=O)c6ccccc6)C5CCC4(C)C3(C)CC(OC(=O)c3ccccc3)C2(COC(=O)c2ccccc2)C(OC(=O)c2ccccc2)C1O (stereo not drawn) [Compound K12]
[6]
  Cytotoxicity activity: weak
[7]
  Cytotoxicity activity: weak
[8]
  Cytotoxicity activity: weak
[9]
  Cytotoxicity activity: weak
[10]
  Cytotoxicity activity: weak
[11]
  Cytotoxicity activity: weak
[12]
  Cytotoxicity activity: weak
[13]
  Cytotoxicity activity: weak
[14]
  Cytotoxicity activity: weak

## CC=CC(=O)OC1C(OC(=O)C=CC)C2(CO)C(O)CC3(C)C(=CCC4C5(C)CCC(O)C(C)(CO)C5CCC43C)C2CC1(C)C (stereo not drawn) [Compound I24]
[5]
  Cytotoxicity activity: moderate

## CC=CC(=O)OCC1(C)C(O)CCC2(C)C1CCC1(C)C2CC=C2C3CC(C)(C)C(O)C(OC(=O)C=CC)C3(CO)C(O)CC21C (stereo not drawn) [Compound I30]
[5]
  Cytotoxicity activity: moderate

## CCC(CC)C(=O)OCC1(C)C(OC(=O)C(CC)CC)CCC2(C)C1CCC1(C)C2CC=C2C3CC(C)(C)C(O)C(OC(=O)C(CC)CC)C3(COC(=O)C(CC)CC)C(OC(=O)C(CC)CC)CC21C (stereo not drawn) [Compound E18]
[1]
  Cytotoxicity activity: weak

## CC=CC(=O)OCC1(C)C(OC(=O)C=CC)CCC2(C)C1CCC1(C)C2CC=C2C3CC(C)(C)C(OC(=O)C=CC)C(OC(=O)C=CC)C3(COC(=O)C=CC)C(OC(=O)C=CC)CC21C (stereo not drawn) [Compound I19]
[5]
  Cytotoxicity activity: none

## CC=C(C)C(=O)OCC1(C)C(OC(=O)C=Cc2ccccc2)CCC2(C)C1CCC1(C)C2CC=C2C3CC(C)(C)C(O)C(OC(=O)C=Cc4ccccc4)C3(COC(=O)C(C)=CC)C(O)CC21C (stereo not drawn) [Tig—R—Cin—6]
[2]
  Cytotoxicity activity: weak
